Measured values from paper PMC8357188 (Nature biomedical engineering, 2020).

System: porcine jejunum tissue
Assay: GI-TRIS intestinal transport experiments
Assay type: in vitro ADME, pig

increase in intestinal transport when formulated with polyethyleneimine: limited increase
Substance: carbetocin acetate
